Earlier results as cited in patent publication US8735422B2, “Cationic pharmaceutically active ingredient containing composition, and methods for manufacturing and using” (Skinvisible Pharmaceuticals, Inc., priority 2009, dated 2014).
Like-named read-outs stand apart in the source and are kept apart here.

Experiments:
[1] = in vivo
[2] = Table 4, value used for the calculation

pK1 (Table 1)	Molecule	further results
5.3	CCCCCCCCCCCC(=O)O [Lauric Acid]	pK: 5.3; pK [2]: 5.30
–	Poly(vinylpyrrolidone/1-hexadecene) [PVPH]	dermal toxicity [1]: no demonstrable dermal toxicity
7.0	CCCCCCCCCCCCCCCCCC(=O)O [Stearic Acid]	–
–	Poly(vinylpyrrolidone/1-eicosene) [PVPE]	dermal toxicity [1]: no demonstrable dermal toxicity
4.76	CC(=O)O [Acetic Acid]	–
–	CC(C)Cn1cnc2c(N)nc3ccccc3c21 [Imiquimod, reference compound]	pK [2]: 4.49
4.5	O=C(O)CCCCCCCCCCC(=O)O [Dodecandioic]	pK2 (Table 1): 4.5

Molecule	pK1 (Table 1)	further results
O=C(O)c1ccccc1 [Benzoic Acid]	4.21	–
O=C(O)[C@H](O)[C@@H](O)[C@H](O)[C@H](O)CO [Gluconic Acid]	3.86	–
